# Counter-ions that a name gives are not always drawn.
# Target: T1, human glycolate oxidase (hGO) (Homo sapiens, UniProt Q9UJM8)
# T1 construct: His-tag (6 histidines, pET-15b) (N); made in house; host or cells: E. coli BL21 (DE3)
# T1 sequence (Q9UJM8 1-370): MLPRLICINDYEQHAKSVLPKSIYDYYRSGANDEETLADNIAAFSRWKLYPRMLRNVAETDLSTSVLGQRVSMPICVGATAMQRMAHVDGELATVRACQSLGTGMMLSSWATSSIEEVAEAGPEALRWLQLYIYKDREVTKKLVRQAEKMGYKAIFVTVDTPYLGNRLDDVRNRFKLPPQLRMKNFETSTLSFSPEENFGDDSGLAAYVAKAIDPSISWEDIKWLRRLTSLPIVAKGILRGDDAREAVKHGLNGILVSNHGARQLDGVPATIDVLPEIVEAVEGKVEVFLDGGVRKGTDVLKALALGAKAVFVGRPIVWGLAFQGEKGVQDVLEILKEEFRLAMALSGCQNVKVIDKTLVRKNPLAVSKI
# Test: In vitro inhibition of human glycolate oxidase (enzymatic assay, HRP-coupled Trinder reaction);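 as to % Inhibition: values are IC50 potency bins despite the % Inhibition label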
# Assay type: biochemical
# Settings: not given
# Source text: The catalytic reactions used for assaying glycolate oxidase activity in the presence of compounds according to the present disclosure are outlined in FIG. 2. Glycolate oxidase (GO)-catalyzed conversion of glycolate to glyoxylate (top reaction), with the concomitant reduction of the cofactor flavin mononucleotide (FMN), uses molecular oxygen (O2) for recovering its oxidative state, releasing hydrogen peroxide (H2O2). The Trinder reaction (bottom reaction), in which horseradish peroxidase (HRP) uses hydrogen peroxide, 4-aminoantipyrine and a phenol derivative (sulphonated DCIP) to generate a quinoneimine dye that is spectrophotometrically measured.
# Human glycolate oxidase (hGO) expression. BL21 (DE3) E. coli transformed with recombinant pET-15b expression vector with the N-terminal His-tag human Hao1 cDNA was grown in LB medium in the presence of 0.1 mg/ml ampicillin. For purification of recombinant human glycolate oxidase (hGO) expressed in BL21 E. coli, bacteria pellets were thawed and re-suspended in 2 ml lysis buffer (50 mM NaH2PO4, 300 mM NaCl, 10 mM imidazole, 50 μM FMN, pH 7.5), and then treated for 30 minutes with 1 mM PMSF for protease inhibition, 0.1% Triton X-100 and 0.2 mg/ml lysozyme to break cellular membranes. After sonication, cells were centrifuged and the supernatant containing the total cellular extract (pre-column fraction) was loaded into a Ni-NTA agarose column and incubated for 30 minutes at 4° C. to allow binding of the 6 histidine tail of recombinant GO protein to the nickel ions. The column was washed with two bed volumes of lysis buffer with 20 mM imidazole to eliminate unbound proteins (wash fraction). GO was eluted using the same buffer with 300 mM imidazole. Fraction containing purified GO was dialyzed against 300 ml of dialysis buffer (50 mM NaH2PO4, 300 mM NaCl, pH 7.5) at 4° C. in agitation overnight, and then kept at 4° C. in darkness. Protein were quantified by the bicinchoninic acid (BCA) assay.
# Enzymatic assays. Enzymatic activity of hGO was determined in the presence of glycolate as substrate (40 mM glycolic acid) and phosphate buffer (50 mM KPO4, 0.1 mM EDTA, pH 7). The production of glyoxylate was indirectly measured by the quantification of hydrogen peroxide formed during the first oxidation reaction. […] Enzymatic activity was calculated at 1 minute after initiation of the Trinder reaction.
row,IC50,SMILES
1,100 to 200 nM,"COc1ccc(-c2ccc(Oc3[nH]nnc3C(=O)O)cc2)cc1 [Example 22, 5-((4′-methoxy-[1,1′-biphenyl]-4-yl)oxy)-1H-1,2,3-triazole-4-carboxylic Acid]"

# Same assay, conditions: recombinant hGO, 40 mM glycolic acid, pH 7, read at 515 nm, 1 minute after initiation of Trinder reaction; read-out: % Inhibition
row,SMILES,IC50
1,"O=C(O)c1nn[nH]c1Oc1ccc(C23CC(C2)C3)cc1 [Example 76, 5-(4-(3-bicyclo[1.1.1]pentan-1-yl)phenoxy)-1H-1,2,3-triazole-4-carboxylic Acid]",< 100 nM
2,"Cc1cc(-c2ccc(-c3ccc(Oc4[nH]nnc4C(=O)O)cc3)cc2)ccn1 [Example 129, 5˜((4′-(2-methylpyridin-4˜yl)-[1,1′-biphenyl]-4-yl)oxy)-1H-1,2,3-triazole-4-carboxylic Acid]",100 to 200 nM
3,"O=C(O)c1nn[nH]c1Oc1ccc(-c2ccnc3ccccc23)cc1 [Example 83, 5-(4-(quinolin-4-yl)phenoxy)-1H-1,2,3-triazole-4-carboxylic Acid]",< 100 nM
4,"O=C(O)c1nn[nH]c1Oc1ccc(-c2cncc3ccccc23)cc1 [Example 96, 5-(4-(isoquinolin-4-yl)phenoxy)-1H-1,2,3-triazole-4-carboxylic Acid]",100 to 200 nM
5,"CC1(c2ccc(-c3ccc(Oc4[nH]nnc4C(=O)O)cc3)cc2)CC1 [Example 122, 5-((4′-(1-methylcyclopropyl)-[1,1′-biphenyl]-4-yl)oxy)-1H-1,2,3-triazole-4-carboxylic Acid]",100 to 200 nM
6,"O=C(O)c1nn[nH]c1Oc1ccc(-c2ccc(OC(F)F)cc2)cc1 [Example 39, 5-((4′-(difluoromethoxy)-[1,1′-biphenyl]-4-yl)oxy)-1H-1,2,3-triazole-4-carboxylic Acid]",100 to 200 nM
7,"O=C(O)c1nn[nH]c1Oc1ccc(C2CCC3(CC2)CC3(F)F)cc1 (stereo not shown) [Example 126, 5-(4-(1,1-Difluorospiro[2.5]octan-6-yl)phenoxy)-1H-1,2,3-triazole-4-carboxylic acid]",> 200 nM
8,"O=C(O)c1nn[nH]c1Oc1ccc(Br)cc1F [Example 51, 5-(4-bromo-2-fluorophenoxy)-1H-1,2,3-triazole-4-carboxylic Acid]",< 100 nM
9,"O=C(O)c1nn[nH]c1Oc1ccc(-c2ccsc2)cc1 [Example 23, 5-(4-(thiophen-3-yl)phenoxy)-1H-1,2,3-triazole-4-carboxylic Acid]",< 100 nM
10,"NC(=O)c1ccc(-c2cccc(Oc3[nH]nnc3C(=O)O)c2)cc1 [Example 63, 5-((4′-carbamoyl-[1,1′-biphenyl]-3-yl)oxy)-1H-1,2,3-triazole-4-carboxylic Acid]",100 to 200 nM
11,"O=C(O)c1nn[nH]c1Oc1ccc(-c2ccc(F)c(Cl)c2)cc1 [Example 33, 5-((3′-chloro-4′-fluoro-[1,1′-biphenyl]-4-yl)oxy)-1H-1,2,3-triazole-4-carboxylic Acid]",< 100 nM
12,"CC(C)c1ccc(-c2ccc(Sc3[nH]nnc3C(=O)O)cc2)cc1 [Example 113, 5-((4′-isopropyl-[1,1′-biphenyl]-4-yl)thio)-1H-1,2,3-triazole-4-carboxylic Acid]",100 to 200 nM
13,"O=C(O)c1nn[nH]c1Oc1ccc(-c2ccc(-c3ccncc3)cc2)cc1 [Example 15, 5-((4′-(pyridin-4-yl)-[1,1′-biphenyl]-4-yl)oxy)-1H-1,2,3-triazole-4-carboxylic Acid]",< 100 nM
14,"O=C(O)c1nn[nH]c1Oc1ccc(-c2ccc(-c3ccc(OC(F)F)cc3)cc2)cc1 [Example 17, 5-((4″-(difluoromethoxy)-[1,1′:4′,1″-terphenyl]-4-yl)oxy)-1H-1,2,3-triazole-4-carboxylic Acid]",> 200 nM
15,"Cc1cc(Oc2[nH]nnc2C(=O)O)ccc1-c1ccc(F)nc1C [Example 85, 5-(4-(6-fluoro-2-methylpyridin-3-yl)-3-methylphenoxy)-1H-1,2,3-triazole-4-carboxylic Acid]",100 to 200 nM
16,"O=C(O)c1nn[nH]c1Oc1ccc(-c2ccc(C3CC3)cc2)cc1 [Example 121, 5-((4′-cyclopropyl-[1,1′-biphenyl]-4-yl)oxy)-1H-1,2,3-triazole-4-carboxylic Acid]",< 100 nM
17,"O=C(O)c1nn[nH]c1Oc1ccc(-c2cccc(C(F)(F)F)c2)cc1 [Example 112, 5-((3′-(trifluoromethyl)-[1,1′-biphenyl]-4-yl)oxy)-1H-1,2,3-triazole-4-carboxylic Acid]",100 to 200 nM
18,"O=C(O)c1[nH]nnc1Oc1ccc(C2CCC(F)(F)CC2)cc1 [Example 87, 5-(4-(4,4-difluorocyclohexyl)phenoxy)-1H-1,2,3-triazole-4-carboxylic Acid]",100 to 200 nM
19,"O=C(O)c1nn[nH]c1Oc1ccc(-c2cccc3ccccc23)cc1 [Example 94, 5-(4-(1-naphthyl)phenoxy)-1H-1,2,3-triazole-4-carboxylic Acid]",< 100 nM
20,"O=C(O)c1nn[nH]c1Oc1ccc(-c2ccccc2OC(F)F)cc1 [Example 28, 5-((2′-(difluoromethoxy)-[1,1′-biphenyl]-4-yl)oxy)-1H-1,2,3-triazole-4-carboxylic Acid]",100 to 200 nM
21,"Cc1cc(F)nc(-c2ccc(Oc3[nH]nnc3C(=O)O)cc2)c1 [Example 74, 5-(4-(6-fluoro-4-methylpyridin-2-yl)phenoxy)-1H-1,2,3-triazole-4-carboxylic Acid]",< 100 nM

# Second part, the compound after the results:
row,IC50,SMILES
1,< 100 nM,"Cc1cc(-c2ccc(Oc3[nH]nnc3C(=O)O)cc2)cnc1F [Example 82, 5-(4-(6-fluoro-5-methylpyridin-3-yl)phenoxy)-1H-1,2,3-triazole-4-carboxylic Acid]"
2,< 100 nM,"O=C(O)c1nn[nH]c1Oc1ccc(Br)c(Cl)c1 [Example 48, 5-(4-bromo-3-chlorophenoxy)-1H-1,2,3-triazole-4-carboxylic Acid]"
3,100 to 200 nM,"Cc1ccc(Oc2[nH]nnc2C(=O)O)cc1 [Example 43, 5-(p-tolyloxy)-1H-1,2,3-triazole-4-carboxylic Acid]"
4,100 to 200 nM,"Cc1cc(Oc2[nH]nnc2C(=O)O)ccc1-c1cnc(F)c(C)c1 [Example 86, 5-(4-(6-fluoro-5-methylpyridin-3-yl)-3-methylphenoxy)-1H-1,2,3-triazole-4-carboxylic Acid]"
5,> 200 nM,"COc1ccc(Oc2[nH]nnc2C(=O)O)cn1 [Example 70, 5-((6-methoxypyridin-3-yl)oxy)-1H-1,2,3-triazole-4-carboxylic Acid]"
6,> 200 nM,"Cc1ccc(Oc2[nH]nnc2C(=O)O)c(C)n1 [Example 67, 5-((2,6-dimethylpyridin-3-yl)oxy)-1H-1,2,3-triazole-4-carboxylic Acid]"
7,> 200 nM,"O=C(O)c1nn[nH]c1Oc1ccc(F)cc1 [Example 9, 5-(4-fluorophenoxy)-1H-1,2,3-triazole-4-carboxylic Acid Sodium Salt]"
8,< 100 nM,"O=C(O)c1nn[nH]c1Oc1ccc(C(F)(F)F)cc1 [Example 60, 5-(4-(trifluoromethyl)phenoxy)-1H-1,2,3-triazole-4-carboxylic Acid]"
9,< 100 nM,"CN(C)c1cccc(Oc2[nH]nnc2C(=O)O)c1 [Example 58, 5-(3-(dimethylamino)phenoxy)-1H-1,2,3-triazole-4-carboxylic Acid]"
10,> 200 nM,"O=C(O)c1nn[nH]c1Oc1ccccc1Br [Example 5, 5-(2-bromophenoxy)-1H-1,2,3-triazole-4-carboxylic Acid]"
11,100 to 200 nM,"Cc1ccc(-c2ccc(Oc3[nH]nnc3C(=O)O)cc2)cn1 [Example 84, 5-(4-(6-methylpyridin-3-yl)phenoxy)-1H-1,2,3-triazole-4-carboxylic Acid]"
12,< 100 nM,"N#Cc1ccc(Oc2[nH]nnc2C(=O)O)cc1 [Example 53, 5-(4-cyanophenoxy)-1H-1,2,3-triazole-4-carboxylic Acid]"

# Source: patent US11401246B2, “Triazole glycolate oxidase inhibitors” (CANTERO THERAPEUTICS, INC., priority 2018, dated 2022)
